The values that follow come from PubChem BioAssay (NCI).

Each structure is given as a SMILES string.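 In this assay, cells in 96-well plates receive the compound at five concentrations for 48 hours. Endpoints are linearly interpolated between the surrounding concentrations. The concentration for full growth arrest is given as TGI.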 Some results are limits rather than exact numbers.

Common to all, as to test: inhibition of tumour cell growth, NCI panel, 48 h
The test system of assay [1] is UO-31 renal.
Assay [2] concerns SW-620 colon.
For assay [3], the system named is SK-MEL-28 melanoma.
Assay [4] relates to A498 renal.
Assay [5] deals with EKVX NSCLC.
The subject of assay [6] is HOP-62 NSCLC.
The test system of assay [7] is NCI/ADR-RES ovarian.
Assay [8] relates to SF-295 CNS.
Assay [9] concerns LOX IMVI melanoma.
Assay [10] relates to MDA-N.
Assay [11] concerns TK-10 renal.

Consider `CC(C)=CCC[C@@H](C)c1c(O)c(O)c(C)c2nc3ccccc3nc12`, for which the TGI in [1] is 5.61 µM; in [2], above 100 µM; in [3] it was 23.8 µM; in assay [4] it was 7.97 µM; in assay [5], 14.8 µM; in [6], 8.48 µM. Also, the TGI came to 7.48 µM in assay [7]; 4.93 µM in [8]; 16.8 µM in [9]; 15.9 µM in assay [10]; 17 µM in assay [11].
Turning to `CCCCC(=O)Nc1ccc2cc(C(=O)OC)c(=O)[nH]c2n1`, the TGI in assay [1], in [2], in assay [3], in assay [4], in [5] and in assay [6] was above 100 µM each time. The TGI in [7], in assay [8], in [9], in assay [10] and in assay [11] was above 100 µM in each case.
Turning to `CN(CCN(C)Cc1ccc(Cl)c(Cl)c1)CCN1CCCC1`, the TGI in assay [1] was 36 µM; in assay [2], above 100 µM; in assay [3] it was 20.3 µM; in assay [4] it was 35.3 µM; in [5], above 100 µM; in assay [6] it was above 100 µM. The TGI in assay [7] was above 100 µM; in assay [8], above 88.7 µM; in [9], above 58.6 µM; in [10] it was 31.4 µM; in assay [11], above 100 µM.
For `CCCc1c(OC)c(O)c2c(=O)cc(OC)c3c4c(OC)cc(=O)c5c(O)c(OC)c(CCC)c(c1c23)c54`, the TGI in assay [1] came to 11 µM; in assay [2], 16.9 µM; in [3], 21.1 µM; in assay [4] it was 31 µM; in [5] it was 15.3 µM; in assay [6], 18.9 µM. The TGI in assay [7] is 25.1 µM; in assay [8], 31.6 µM; in [9], 4.91 µM; in assay [10], 22.7 µM; in assay [11] it was above 100 µM.
On to `O=c1[nH]nc(Nc2ccccc2)c2nnn(Cc3ccccc3)c12`, for which the TGI in assay [1] is above 100 µM; in [2] it was above 100 µM; in assay [3] it was above 100 µM; in [4] it was above 100 µM; in assay [5] it was above 100 µM; in [6], 24 µM. Besides, the TGI in [7], in assay [8], in [9], in assay [10] and in assay [11] was above 100 µM in each case.
With `Cc1cc2nc(N)n[n+]([O-])c2cc1C`, the TGI in assay [1], in assay [2], in [3], in [4], in [5] and in assay [6] was above 100 µM each time. For the same molecule, the TGI in assay [7], in assay [8], in assay [9], in assay [10] and in assay [11] was above 100 µM each time.
As to `COc1cc(CNc2nc3cc(C(F)(F)F)ccc3nc2C(=O)O)cc(OC)c1OC`, the TGI was 39.4 µM in assay [1]; above 100 µM in [2]; above 100 µM in assay [3]; 60.7 µM in [4]; 57.1 µM in [5]; 59.3 µM in assay [6]. Also, the TGI in assay [7] was 76.4 µM; in assay [8], 43.3 µM; in [9] it was above 100 µM; in assay [10] it was 45.2 µM; in assay [11] it was 39.7 µM.
For the molecule `O=C(O)C(C1NCCS1)N1Cc2ccccc2C1` (configuration not stated), the TGI in [1], in assay [2], in assay [3], in assay [4], in assay [5] and in assay [6] was above 100 µM each time. Also, the TGI in [7], in assay [8], in [9], in assay [10] and in assay [11] was above 100 µM in each case.
Consider `CS(=O)(=O)c1ccc(C2=C(c3ccccc3)C(=O)OC2)cc1`, for which the TGI in assay [1], in [2], in [3], in assay [4], in assay [5] and in assay [6] was above 100 µM throughout. For the same molecule, the TGI in assay [7], in assay [8], in [9], in [10] and in assay [11] was above 100 µM each time.
Take `CN(C)CCNc1ccccn1`: the TGI in [1], in [2], in [3], in assay [4], in assay [5] and in [6] was above 100 µM each time. Further, the TGI in [7], in [8], in assay [9], in assay [10] and in assay [11] was above 100 µM in each case.
`CC1CN=C(c2ccc3c(c2)Cc2cc(C4=NCC(C)N4)ccc2-3)N1` (configuration not stated): the TGI in [1], in assay [2], in [3], in assay [4], in assay [5] and in assay [6] was above 100 µM in each case. In addition, the TGI in assay [7], in assay [8], in assay [9], in [10] and in assay [11] was above 100 µM each time.
For the molecule `c1ccc2c3c(c(N4CCNCC4)nc2c1)CCCC3`, the TGI in assay [1] turned out to be 16.3 µM; in assay [2] it was 35 µM; in assay [3], 31.1 µM; in assay [4], 27.6 µM; in assay [5], 21.1 µM; in assay [6], 48.4 µM. Besides, the TGI in [7] worked out at 27.3 µM; in assay [8], 45.8 µM; in assay [9], 27.2 µM; in [10], 28.3 µM; in assay [11], 26.6 µM.
